# Data taken from patent US20080242636A1, “MODIFIED CYCLODEXTRIN SULFATE-71 (TERIGYN) AS A MICROBICIDE AGENT” (priority 2007, published 2008).
# Legend:
# [1] = system: LAV-1, a laboratory strain of HIV-1; assay: p24 antigen anti-HIV assay in pretreated PBMC and MT4 cells infected with LAV-1; format: cell-based
# Procedure: (§1) Primary peripheral blood mononuclear cells and a MT4 cell line were pretreated with varying concentrations of terygyn before infection with LAV-1, a laboratory strain of HIV-1. As a control, a set of similar cells were not pretreated with the compound. Anti-HIV activity was measured using p24 antigen testing. Terygyn achieved total HIV inhibition (IC100) at 1 ug/ml. Cell toxicity was not observed till the concentration of terygyn was 10 ug/ml. […] Terygyn's ability to inhibit HIV at lower concentration makes it a more attractive compound for safe clinical use.
# [2] = system: Primary peripheral blood mononuclear cells and MT4 cell line; format: cell-based
# Procedure: as §1
# HIV-1 R5 viruses = assay: TZM-bL luciferase assay, R5 viruses; format: cell-based; conditions: TZM-bL cells, 48 hr at 37 C
# Procedure: (§2) To further determine the inhibition of Terygyn of either CXCR4 or R5 viruses in cervical explants, various concentrations of Terygyn were cultured in TZM-bL cells with TCID50 HIV-1. TZM-bL are X4 positive HeLa cell clones that have been engineered to express CD4 and CCR5 and integrates a reporter gene for firefly luciferase and E coli b-galactosidase. Virus and drugs were left in culture for 48 hr at 37 C and luciferase assay determined thereafter.
# HIV-1 X4 viruses = assay: TZM-bL luciferase assay, X4 viruses; format: cell-based; conditions: TZM-bL cells, 48 hr at 37 C
# Procedure: as §2
# HIV = conditions: as described by Tanabe Seiyaku 1991; cited from earlier work
# [3] = rats, safety trials; cited from earlier work
# [4] = IC50 comparison with literature value
# [5] = PBMC and MT4 pretreated, LAV-1, p24 antigen
structure (smiles),measurement,setting,value
"O=S(=O)([O-])OC[C@@H]1O[C@@H]2O[C@H]3[C@H](OS(=O)(=O)[O-])[C@H](OCc4ccccc4)[C@@H](O[C@H]4[C@H](OS(=O)(=O)[O-])[C@H](OCc5ccccc5)[C@@H](O[C@H]5[C@H](OS(=O)(=O)[O-])[C@H](OCc6ccccc6)[C@@H](O[C@H]6[C@H](OS(=O)(=O)[O-])[C@H](OCc7ccccc7)[C@@H](O[C@H]7[C@H](OS(=O)(=O)[O-])[C@H](OCc8ccccc8)C(O[C@H]8[C@H](OS(=O)(=O)[O-])[C@H](OCc9ccccc9)C(O[C@H]1[C@H](OS(=O)(=O)[O-])[C@@H]2OCc1ccccc1)O[C@H]8COS(=O)(=O)[O-])O[C@H]7COS(=O)(=O)[O-])O[C@H]6COS(=O)(=O)[O-])O[C@H]5COS(=O)(=O)[O-])O[C@H]4COS(=O)(=O)[O-])O[C@H]3COS(=O)(=O)[O-].[Na+].[Na+].[Na+].[Na+].[Na+].[Na+].[Na+].[Na+].[Na+].[Na+].[Na+].[Na+].[Na+].[Na+] [Terygyn, Tetradecasodium heptakis (2-0 benzyl)β-cyclodextrin tetradecasulfate]",fold more potent than PRO 2000,[1]; [4],fifty-fold
same,fold more potent than Ushercell,[1]; [4],100 fold
same,in vitro antiviral activity IC50,[1]; [5],0.5 µg/mL
same,total HIV inhibition (IC100),[1]; [5],1 µg/mL
same,concentration until which cell toxicity was not observed,[2],10000 ng/mL
same,IC50 R5 viruses,HIV-1 R5 viruses,0.13 ± 0.05 µg/mL
same,IC50 X4 viruses,HIV-1 X4 viruses,0.88 ± 1.2 µg/mL
same,anti-HIV activity in vitro,HIV,0.98 µg/mL
same,tolerability,[3],125 mg/kg/day
